Test results as given in patent US20230263725A1, “INTRANASAL ADMINISTRATION OF AN ANTIOXIDANT COMPOUND FOR TREATING CORONAVIRUS INFECTION” (priority 2020, published 2023).
Where “and” joins values, the source holds several entries; their conditions need not be identical. Equal entries are not always repeated. Where two headings read alike, the source gives them in different places.

Legend:
[1] = cited from earlier work; for F total meas (total bioavailability experimentally determined): naltrexone 4 mg
[2] = test system: SARS-CoV-2; assay: Oral NAC in mild or moderate COVID-19, open label controlled study NCT04419025; type: in vivo
[3] = test system: brain glutathione (GSH/Cr); assay: Intranasal NAC, brain glutathione by MEGA PRESS MR Spectroscopy in healthy subjects; type: in vivo, humans
Description: In this example, intranasal administration of NAC to healthy humans was studied.
The study consisted of two study periods each involving 3 subjects and was designed to provide rapid proof-of-concept data on the ability of intranasal NAC to increase brain GSH levels. In Study Period 1, three right-handed male subjects, and 58 were evaluated. After informed consent and completion of a medical history questionnaire, each subject participated in multiple MR Spectroscopy sessions. On the first day, each subject was scanned once. A T1-weighted thin slice data set was acquired for subsequent positioning of a MR spectroscopy voxel (5×5×3 cm3) positioned with its posterior edge covering the genu of the corpus callosum, extending anteriorly into the frontal lobes.
GSH levels were determined within the volume of interest using […] double-editing for the cysteinyl β-CH2 residue of GSH. Spectral editing was accomplished by refocusing GSH J-evolution during every other acquisition (ON), using a Gaussian pulse centered at the cysteinyl α-CH resonance of GSH at 4.56 p.p.m. During the alternate acquisitions (OFF), the pulse was applied symmetrically about the water peak. The difference-edited GSH spectrum was generated by subtraction of the OFF and ON spectra. Data analysis was accomplished using the GANNET software package which provided information on the GSH/Cr ratio. The Day 1 scan served as an initial baseline.
On Day 2, another baseline evaluation was performed, along with two additional scans at 1-hour and 2-hours post administration of intranasal NAC. The timing of Day 2 scans was shifted relative to Day 1, such that the time-of-day for the Day 1 baseline scan matched the time-of-day of the Day 2, 1-hour post NAC scan. This is illustrated in FIG. 2 and was done to provide control for potential circadian rhythm effects in GSH levels. In FIG. 2, green bars show times of spectroscopic imaging. The time-of-day for the baseline MRS scan on Day 1 matches the time-of-day for the 1-hour post-NAC scan on Day 2.
Solution was delivered as six alternating bursts of 0.33 ml to each nostril over the course of 5-10 minutes.
In Study Period 2, three additional right-handed male subjects, and 31 were studied. MRS data were collected on a single day, with baseline, 1 hr, 2 hrs, and 4 hrs post-NAC evaluations (as illustrated in FIG. 5). The same spectroscopic methods as used in period 1 were employed. However, a multi-dose pump intranasal delivery device was used.

[4] = test system: A/H1N1 Singapore 6/86 influenza virus; conditions: oral NAC over 6 months; control 79%; cited from earlier work
[5] = test system: GSH levels in the brain; conditions: NAC delivered intranasally and orally; cited from earlier work
[6] = Safety and tolerability of intranasal NAC in healthy subjects
[7] = intranasal, with versus without DDM
[8] = intranasal + DDM, sumatriptan 10 mg
[9] = intranasal, without DDM, sumatriptan 20 mg
[10] = study period 1, intranasal 20% MUCOMYST, 1 ml per nostril, mucosal atomization device, subject (male)
[11] = study period 2, intranasal, multi-dose pump, (male)

In the case of `O=C1CC[C@@]2(O)[C@H]3Cc4ccc(O)c5c4[C@@]2(CCN3CC2CC2)[C@H]1O5` [Naltrexone], the “F total meas (total bioavailability experimentally determined)” value (from here on “F total meas”) [1, 8] is given as 95% and the “F total meas” value [1, 9] is given as 65%.

For `CC(=O)N[C@@H](CS)C(=O)O` [NAC, N-acetyl cysteine], the “fewer days in the hospital versus no NAC” value ([2]; hospitalized group, oral NAC) was 1 days, the hospitalization days ([2]; hospitalized group, oral NAC 25 mg/kg every 4 hours, 6 days without NAC) was 5 days and the deaths ([2]; hospitalized group, oral NAC, group without NAC had 2-3 deaths) was “no deaths”. The “increase in hospitalization needed for those who did not receive oral NAC” value ([2]; outpatients) was ~5 x, the outpatients needing hospitalization ([2]; outpatients, mild cases, oral NAC 2400 mg then 1200 mg 2x/day for 2 weeks, 15% without NAC) was 3-4% and the “time of peak levels” value ([3]; all subjects, FIG. 8) was 1 to 2 h. For the same compound, the “effect on brain GSH as measured by MR spectroscopy” value ([3]; intranasal NAC) was “statistically significant increase”, the “brain GSH levels above baseline at 4 hours” value ([3]; intranasal NAC, 4 hours, FIG. 8) was ~ 35% and the “increase in brain GSH levels (average percent change in GSH/Cr)” value ([3]; intranasal NAC, combined across all subjects, FIG. 8) was > 50%. The “time for which the increase in brain GSH/Cr level is sustained post-administration” value ([3]; study period 1) was “at least 2 hours”, the “Day 2, 1-hour post-NAC GSH/Cr” value [3, 10] was 0.059 and 0.037 and 0.031 and the “Day 2, 2-hours post-NAC GSH/Cr” value [3, 10] was 0.052 and 0.035 and 0.048. The “time for which increased brain GSH/Cr levels are maintained” value ([3]; study period 2) was “at least 4 hrs”, the “1-hr post-NAC GSH/Cr” value [3, 11] was 0.034 and 0.053 and 0.050 and the “2-hours post-NAC GSH/Cr” value [3, 11] was 0.039 and 0.042 and 0.045. The “4 hrs-hours post-NAC GSH/Cr” value [3, 11] was 0.036 and 0.041 and 0.042, the “developed a symptomatic form of the A/H1N1 Singapore 6/86 influenza virus” value [4] was 25% and the “effect on GSH levels in the brain” value [5] was “increase in GSH levels in the brain”. For the same compound, the “bioavailability of oral NAC” value ([1]; oral dosing) was 10% and 9-10%, the “changes in heart-rate, breathing rate, O2 saturation or blood pressure” value ([6]; intranasal NAC) was “No significant changes” and the “duration of transient nausea” value ([6]; intranasal NAC) was < 5 min. For the same compound, the “subjects voicing complaints about the NAC odor” value ([6]; intranasal NAC) was 5 of 6, the adverse events ([6]; intranasal NAC, 6 subjects) was “no adverse events were reported” and the “subjects reporting very mild transient nausea” value ([6]; intranasal NAC, 6 subjects) was 2. The “complaints of NAC fluid into the throat” value ([6]; mucosal atomizer, study period 1) was “all three subjects complained” and the “complaints of NAC fluid into the throat” value ([6]; multi-dose pump, study period 2) was “not found”.

In the case of `CNS(=O)(=O)Cc1ccc2[nH]cc(CCN(C)C)c2c1` [Sumatriptan], the “increase in bioavailability when dosed together with DDM” value [7] is listed as 35%, the “F total meas” value [1, 8] is listed as 69% and the “F total meas” value [1, 9] is listed as 34%.
